Laboratory results taken from patent publication US6906094B2, “1,2,4-tribsubstituted benzenes as inhibitors of 15-lipoxygenase” (Warner-Lambert Company, priority 2000, dated 2005).
pIC50: −log10 of the molar value.

Key:
[1] = target: T1, human 15-LO (Homo sapiens, UniProt P16050); test: Human Lysate 15-LO Assay (HUM15LO); assay type: biochemical; conditions: recombinant human 15-LO, 174 μM linoleic acid, 15 minutes at 4° C., 13-HODE quantitated
T1 construct: made in house; host or cells: Sf9 insect cells (baculovirus, Bac-to-Bac)
T1 sequence (P16050 1-662): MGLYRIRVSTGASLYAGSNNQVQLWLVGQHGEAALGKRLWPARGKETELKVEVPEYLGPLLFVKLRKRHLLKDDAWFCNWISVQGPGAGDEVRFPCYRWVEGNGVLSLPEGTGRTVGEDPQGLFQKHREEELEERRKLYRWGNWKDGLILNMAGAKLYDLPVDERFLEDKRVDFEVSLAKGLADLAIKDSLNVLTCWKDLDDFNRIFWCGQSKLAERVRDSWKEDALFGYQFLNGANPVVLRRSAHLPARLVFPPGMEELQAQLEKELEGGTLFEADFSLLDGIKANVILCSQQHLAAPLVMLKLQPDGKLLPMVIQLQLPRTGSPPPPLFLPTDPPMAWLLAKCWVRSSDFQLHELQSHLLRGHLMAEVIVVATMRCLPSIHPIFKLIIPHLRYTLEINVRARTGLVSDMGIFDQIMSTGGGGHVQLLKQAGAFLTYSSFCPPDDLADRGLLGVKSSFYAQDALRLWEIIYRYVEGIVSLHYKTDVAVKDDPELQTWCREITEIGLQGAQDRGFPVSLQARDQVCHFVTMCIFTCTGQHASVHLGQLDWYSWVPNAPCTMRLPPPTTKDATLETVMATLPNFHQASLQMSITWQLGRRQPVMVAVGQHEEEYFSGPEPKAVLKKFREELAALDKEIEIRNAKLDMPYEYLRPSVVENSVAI
Experimental: In the HUM15LO assay, a test compound of the present invention was incubated with 15-LO enzyme in the presence of the linoleic acid substrate. For example, a known amount of a test compound of the present invention, 100 μL of human 15-LO, and 174 μM linoleic acid in PBS containing 0.2% sodium cholate were incubated for 15 minutes at 4° C. The reaction was stopped with 100 μL of mobile phase and 10 μL of triethyl phosphite. […] 13-HODE was quantitated by comparing peak areas of individual samples with those from a standard curve generated using authentic 13-HODE. The test reaction is compared to a control reaction, which is identical to the test reaction except no test compound of the present invention is present Percent inhibition is calculated as the amount of 13-HODE produced by the test reaction divided by the amount of 13-HODE produced by the control reaction, expressed as a percent.
Human 15-LO was generated in a recombinant 15-lipoxygenase bacculovirus expression system, using Gibco/BRL/Life Technologies' Bac-to-Bac expression reagents; T4 DNA ligase, Kanamycin, Gentamicin, tetracycline, penicillin, streptomycin, Bluo-gal, IPTG, DH10Bac competent cells, SOC, LB medium, Sf-900 II SFM media, Sf9 insect cells, Cell Fectin, and EcoRI, BamHI and KpnI restriction enzymes.

[2] = target: T2, rabbit reticulocyte 15-LO (Oryctolagus cuniculus, UniProt P12530); test: Rabbit Reticulocyte 15-LO Assay (H15LO); assay type: biochemical; conditions: 2 U rabbit reticulocyte 15-LO, 174 μM linoleic acid, 15 minutes at 4° C., 13-HODE quantitated
T2 construct: 15-LO is obtained from phenylhydrazine-treated rabbits and purified according to the method of Rapoport; from tissue; host or cells: reticulocytes of phenylhydrazine-treated rabbits
T2 sequence (P12530 1-663): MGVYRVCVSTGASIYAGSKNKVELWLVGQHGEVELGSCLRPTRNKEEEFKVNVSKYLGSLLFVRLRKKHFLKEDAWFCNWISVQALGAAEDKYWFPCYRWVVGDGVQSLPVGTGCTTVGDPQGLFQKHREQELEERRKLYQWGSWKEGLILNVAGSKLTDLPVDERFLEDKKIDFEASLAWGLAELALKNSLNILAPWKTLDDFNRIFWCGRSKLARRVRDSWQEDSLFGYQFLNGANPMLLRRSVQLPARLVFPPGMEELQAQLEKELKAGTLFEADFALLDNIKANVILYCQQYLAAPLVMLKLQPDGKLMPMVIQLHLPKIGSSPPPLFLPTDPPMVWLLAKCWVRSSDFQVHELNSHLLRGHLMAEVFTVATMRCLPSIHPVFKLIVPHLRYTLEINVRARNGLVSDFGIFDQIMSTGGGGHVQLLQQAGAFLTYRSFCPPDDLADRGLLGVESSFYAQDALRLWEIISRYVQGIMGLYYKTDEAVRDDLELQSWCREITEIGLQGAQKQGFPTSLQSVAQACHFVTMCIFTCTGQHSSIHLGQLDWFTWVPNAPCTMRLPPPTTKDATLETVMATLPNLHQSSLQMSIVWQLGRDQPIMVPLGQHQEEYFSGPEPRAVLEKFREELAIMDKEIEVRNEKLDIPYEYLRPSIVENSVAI
Experimental: In the H15LO assay, a test compound was incubated with 15-LO enzyme in the presence of the linoleic acid substrate. For example, 2 units (U) of rabbit reticulocyte 15-LO and 174 μM linoleic acid were incubated with a known amount of a test compound of the present invention for 15 minutes at 4° C. The total reaction volume was 100 μL in phosphate buffer saline (PBS) containing 0.2% sodium cholate. The reaction was stopped with 100 μL of mobile phase and […] of triethyl phosphite. […] 13-HODE was quantitated by comparing peak areas of individual samples with those from a standard curve generated using authentic 13-HODE.
15-LO is obtained from phenylhydrazine-treated rabbits and purified according to the method of Rapoport (Rapoport et al., European Journal of Biochemistry, 1979;96:545-561).

pIC50 [1] | melting point [°C] | pIC50 [2] | Compound
7.89 | 177 to 180 | 7.92 | COc1ccc(-c2cc3cc(F)c(F)cc3[nH]2)cc1NS(=O)(=O)NC(=O)OCc1ccccc1 [Example 36, Carbamic Acid, [[[5-(5,6-difluoro-IH-indol-2-yl)-methoxyphenyl]amino]-sulfonyl]-, Phenylmethyl ester]
7.89 | 159 to 163 | 8.15 | COc1ccc(C(=O)Nc2ccc(F)c(F)c2)cc1NS(=O)(=O)NC(=O)OC/C=C/c1ccccc1 [Example 33, Carbamic Acid, [[[5-[[(3,4-difluorophenyl)amino]carbonyl]-2-methoxyphenyl]amino]sulfonyl]-, (2E)-3-phenyl-2-propenyl ester]
7.92 | 186 to 188 | 8.70 | CCCCCCOC(=O)NS(=O)(=O)Nc1cc(-c2cc3cc(F)c(F)cc3[nH]2)ccc1OC [Example 51, Carbamic Acid, [[[5-(5,6-difluoro-IH-indo-2yl)-methoxyphenyl]amino]-sulfonyl]-hexyl ester]
7.92 | 177 to 180 | 8.00 | COc1ccc(-c2cc3cc(F)c(F)cc3[nH]2)cc1NS(N)(=O)=O [Example 54, Sulfamide, [5-(5,6-difluoro-IH-indol-2-yl)-2-methoxyphenyl]]
7.27 | 178 to 181 | 7.36 | CCOCCOC(=O)NS(=O)(=O)Nc1cc(-c2cc3cc(F)c(F)cc3[nH]2)ccc1OC [Example 47, Carbamic Acid, [[[5-(5,6-difluoro-IH-indol-2-yl)-2-methoxyphenyl]-amino]sulfonyl]-, 2-ethoxyethyl ester]
7.85 | 178 to 180 | 8.30 | CCCCCCCOC(=O)NS(=O)(=O)Nc1cc(-c2cc3cc(F)c(F)cc3[nH]2)ccc1OC [Example 30, Carbamic Acid, [[[5-(5,6-difluoro-IH-indo-2-yl)2-methoxyphenyl]amino]-sulfonyl]-heptyl ester]
7.82 | 166 to 168 | 8.30 | COc1ccc(-c2cc3cc(F)c(F)cc3[nH]2)cc1NS(=O)(=O)NC(=O)OCCCOCc1ccccc1 [Example 49, Carbamic Acid, [[[5-(5,6-difluoro-IH-indol-2-yl)-2-methoxyphenyl]-amino]sulfonyl]-3-(phenylmethoxy)propyl ester]
7.19 | 178 to 179 | 7.74 | COc1ccc(C(=O)Nc2ccc(F)c(F)c2)cc1NS(=O)(=O)NC(=O)OCCCOCc1ccccc1 [Example 50, Carbamic Acid, [[[5-[[(3,4-difluorophenyl)amino]carbonyl]-2-methoxyphenyl]amino]sulfonyl]-, 3-(phenylmethoxy)propyl ester]
6.47 | 203 to 205 | – | COc1ccc(C(=O)Nc2ccc(F)c(F)c2)cc1NS(=O)(=O)NC(=O)OCCN1C(=O)c2ccccc2C1=O [Example 56, Carbamic Acid, [[[5-[[(3,4-difluorophenyl)amino]carbonyl]-2-methoxyphenyl]amino]sulfonyl]-, 2-(1,3-dihydro-1,3-dioxo-2H-isoindol-2-yl)ethyl ester]

The remaining lines, values behind:

Compound | pIC50 [1] | melting point [°C] | pIC50 [2]
COc1ccc(C(=O)Nc2ccc(F)c(F)c2)cc1NS(=O)(=O)NC(=O)Nc1ccc(Cl)cc1 [Example 68, Benzamide, 3-[[[[[(4-chlorophenyl)amino]carbonyl]amino]sulfonyl]amino]-N-(3,4-difluorophenyl)-4-methoxy] | 6.44 | 195 to 198 | –
COc1ccc(C(=O)Nc2ccc(F)c(F)c2)cc1NS(=O)(=O)NC(=O)Nc1cccc(Cl)c1 [Example 61, Benzamide, 3-[[[[[(3-chlorophenyl)amino]carbonyl]amino]sulfonyl]amino]-N-(3,4-difluorophenyl)-4-methoxy] | 7.41 | 193 to 196 | 7.89
COc1ccc(C(=O)Nc2ccc(F)c(F)c2)cc1NS(=O)(=O)NC(=O)OCCCO [Example 46, Carbamic Acid, [[[5-[[(3,4-difluorophenyl)amino]carbonyl]-2-methoxyphenyl]amino]sulfonyl]-, 3-hydroxypropyl ester] | 6.08 | 178 to 179 | –
CCCCCCOC(=O)NS(=O)(=O)Nc1cc(C(=O)Nc2ccc(F)c(F)c2)ccc1OC [Example 52, Carbamic Acid, [[[5-[[(3,4-difluorophenyl)amino]carbonyl]-2methoxyphenyl]amino]sulfonyl]-, Hexyl ester] | 7.41 | 175 to 178 | 8.30
COc1ccc(C(=O)Nc2ccc(F)c(F)c2)cc1NS(N)(=O)=O [Example 55, Benzamide, 3-[(aminosulfonyl)amino]-N-(3,4-difluorophenyl)-4-methoxy] | 7.54 | 167 to 170 | 7.72
COc1ccc(C(=O)Nc2ccc(F)c(F)c2)cc1NS(=O)(=O)NC(=O)Nc1cccc(C(F)(F)F)c1 [Example 64, Benzamide, N-(3,4-difluorophenyl)methoxy-3-[[[[[[3-(trifluoromethyl)phenyl]amino]carbonyl]amino]sulfonyl]amino]] | 7.62 | 198 to 200 | –
COC(=O)COC(=O)NS(=O)(=O)Nc1cc(C(=O)Nc2ccc(F)c(F)c2)ccc1OC [Example 44, Acetic Acid, [[[[[[5-[[(3,4-difluorophenyl)amino]carbonyl]-2-methoxyphenyl]-amino]sulfonyl]amino]carbonyl]oxy]-, Methyl ester] | 6.63 | 177 to 180 | –
COc1ccc(C(=O)Nc2ccc(F)c(F)c2)cc1NS(=O)(=O)NC(=O)OC(C)(C)C [Example 58, Carbamic acid, [[[5-[[(3,4-difluorophenyl)amino]carbonyl]-2-methoxyphenyl]amino]sulfonyl]-, 1,1-dimethylethyl ester] | 6.12 | 193 to 194 | –
CCOCCOC(=O)NS(=O)(=O)Nc1cc(C(=O)Nc2ccc(F)c(F)c2)ccc1OC [Example 48, Carbamic Acid, [[[5[[(3,4-difluorophenyl)amino]carbonyl]-2-methoxyphenyl]amino]sulfonyl]-, 2-ethoxyethyl ester] | 6.51 | 179 to 182 | –
